Reference: patent US10653739B2, “Medicinal ambrosia maritima extracts” (priority 2015, dated 2020)
pIC50: −log10 of the molar value.

What was measured:
[1] = system: prostate cancer cell line; experiment: MTS IC50, prostate cancer cell line; type: cell-based; settings: purified sub fractions of the organic extraction
Text: (§1) MTS was used to evaluate IC50 (drug concentration causing 50% inhibition of the desired activity) for SLs on various bladder, prostate, breast, lung and pancreatic cancer cell lines.
The concentration is in μmol. As expected, some of the sub fractions affected the cell line to a much greater extent to others.

[2] = system: BT-474 breast cancer cell line; experiment: MTS IC50, BT-474 breast cancer cell line; type: cell-based; settings: Homo sapiens, individual SLs
Method: as §1
(§2) The IC50 of the purified SLs, Parthenin, Ambrosin, Damsin, and Neoambrosin, were also tested for MDA-MB-231 cell line (FIG. 22), MDA-MB-468 (Basal Subtype Normal) cell line (FIG. 23), and BT-474 cell line (FIG. 24), an invasive ductal carcinoma cell line (luminal subtype B).

[3] = system: UM-UC-9 (bladder) and BT-20 (breast) cancer cell line; experiment: Bromouridine sequencing of nascent transcription; type: cell-based; settings: 3.5 hours treatment
Method: A common method of monitoring RNA changes is by labeling new RNA with Bromouridine, then isolate the RNA to see where the new RNA was made. Bromouridine sequencing is well known in the art.
We used this method to monitor RNA in the UM-UC-9 (bladder) and BT-20 (breast) cancer cell line to detect the level of nascent transcription on the genome after treatment with SLs. Both cell lines were treated with the whole organic fraction at one time, or purified Ambrosin from the organic fraction at different doses for 3.5 hours. The RNA was then labeled with Bromouridine for half an hour and sequenced to detect the level of nascent transcription in the genome.

[4] = system: MDA-MB-231 breast cancer cell line; experiment: MTS IC50, MDA-MB-231 breast cancer cell line; type: cell-based; settings: for pIC50: Homo sapiens, MDA-MB-231, individual SLs, MTS
Method: as §1
Several TNBC cell lines were tested in vitro and were treated with serial concentrations of the extracted SLs from Ambrosia maritima to determine IC50.
as §2
(§3) Similar tests were performed with the organic extract from Ambrosia hispida.

[5] = system: UM-UC-9 bladder cancer cell line; experiment: MTS IC50, UM-UC-9 bladder cancer cell line; type: cell-based; settings: 1000 cells/well
Method: as §1
(§4) The MTS test was then conducted to evaluate the different IC50 of multiple cell lines. Purification was performed to separate the organic extract of SLs into different components. Micromolar doses, instead of micrograms, as determined by the molecular weight of the different SLs, Parthenin, Ambrosin, Damsin, and Neoambrosin, were tested in vitro. Ideally, for drug treatments, micromolar weights between 10-15 are preferred.

[6] = system: MDA-MB-231 breast cancer cells; experiment: Orthotopic MDA-MB-231 breast cancer model; type: in vivo, mice; settings: MDA-MB-231 triple negative cell line
Method: Additional in vivo experiments were conducted for three breast cancer cell lines that were orthotopically injected into mice. Orthotopic injection of breast cancer cells is a powerful model to study all aspects of cancer growth. One million cells of each MDA-MB-231, SUM-159 and MDA-MB-468 were injected into the mammary fat pad of mice to form tumors. Once tumors were established, the tumors were treated with the SL-containing organic extraction of Ambrosia maritima at a dose of 200 μM of total SLs/animal daily.
FIGS. 11A-B show the histopathology of the tumor area in the mice treated with the SLs extracted from Ambrosia maritima versus control animals for the SUM-159 and MDA-MB-231 cell lines.
Thus, these components can be purified individually from the SL organic fraction and then combined as a potential treatment.

[7] = system: UM-UC-7 bladder cancer cell line; experiment: MTS IC50, UM-UC-7 bladder cancer cell line; type: cell-based; settings: 1000 cells/well
Method: as §1, §4

[8] = system: UM-UC-17 bladder cancer cell line; experiment: MTS IC50, UM-UC-17 bladder cancer cell line; type: cell-based; settings: 1000 cells/well
Method: as §1, §4

[9] = system: MDA-MB-468 breast cancer cell line; experiment: MTS IC50, MDA-MB-468 breast cancer cell line; type: cell-based; settings: Homo sapiens, individual SLs
Method: as §1, §2

[10] = system: BT-20 breast cancer cell line; experiment: MTS IC50, BT-20 breast cancer cell line; type: cell-based; settings: Ambrosin purified from Ambrosia hispida
Method: as §1, §3

[11] = system: UM-UC-15 bladder cancer cell line; experiment: MTS IC50, UM-UC-15 bladder cancer cell line; type: cell-based; settings: 1000 cells/well
Method: as §1, §4

C=C1C(=O)O[C@@H]2[C@H]1CC[C@H](C)[C@@H]1C=CC(=O)[C@@]21C (single isomer, unassigned) [AMBROSIN, Ambrosin]
pIC50 [1]: 5.57
pIC50 [2]: 5.66
nascent transcription of genes of apoptotic pathway, reactive oxygen species pathway [3]: upregulated
nascent transcription of hallmark genes related to cancer progression and proliferation [3]: transcribing them at lower level than the control
IC50 of purified Ambrosin compared with SL extract of Ambrosia hispida, MDA-MB-231 ([4]; Ambrosin purified from Ambrosia hispida): greater IC50
pIC50 [4]: 5.99
pIC50 ([5]; MTS): 5.20
pIC50 ([5]; UM-UC-9, MTS): > 5.00
level of expression of HER2 and p65 in xenografted animals [6]: significant improves
pIC50 [7]: 5.31
pIC50 [8]: 5.87
pIC50 [9]: 6.05
IC50 of purified Ambrosin compared with SL extract of Ambrosia hispida, BT-20 [10]: greater IC50
pIC50 [11]: 6.00

C=C1C(=O)O[C@@H]2[C@H]1CC[C@H](C)[C@@H]1CCC(=O)[C@@]21C (single isomer, unassigned) [DAMSIN, Damsin]
pIC50 [1]: 5.94
pIC50 [2]: 5.55
pIC50 [4]: 5.79
pIC50 ([5]; MTS): 5.33
level of expression of HER2 and p65 in xenografted animals [6]: significant improves
pIC50 [7]: 5.96
pIC50 [8]: 5.54
pIC50 [9]: 6.03
pIC50 [11]: 5.98

C=C1C(=O)O[C@@H]2[C@H]1CC[C@H](C)[C@]1(O)C=CC(=O)[C@@]21C (single isomer, unassigned) [PARTHENIN, Parthenin]
pIC50 [1]: 5.31
pIC50 [2]: 5.07
pIC50 [4]: 5.32
pIC50 ([5]; UM-UC-9, MTS): 4.85
pIC50 [7]: 5.19
pIC50 [8]: 5.20
pIC50 [9]: 5.91
pIC50 [11]: 5.31

C=C1C(=O)O[C@@H]2[C@H]1CC[C@H](C)C1=CCC(=O)[C@]12C (single isomer, unassigned) [NEOAMBROSIN, Neoambrosin]
pIC50 [1]: 3.58
pIC50 [2]: 4.44
pIC50 [4]: 4.65
pIC50 ([5]; UM-UC-9, MTS): 3.85
pIC50 [7]: 3.92
pIC50 [8]: 4.50
pIC50 [9]: 5.04
pIC50 [11]: 3.84
